From patent US20220119446A1, “BIOMARKERS AND TREATMENT OF NEURONAL INJURY AND NEURODEGENERATION” (Board of Supervisons of Louisiana State University and …, priority 2018, published 2022)
“Also recorded” adds a separate entry of the source. * marks the point of attachment. Boc = CC(C)(C)OC(=O)*

Key:
ARPE-19 cells and hpRPE = assay: Apoptosis by Hoechst staining in RPE cells under UOS; assay type: cell-based, human; details: for apoptosis by UOS in the presence of the Wnt ligand: RPE cells under UOS with recombinant Wnt5a; for cell death by UOS on addition of Wnt5a: ARPE-19 cells and hpRPE under UOS, Wnt5a 50 ng/ml
Experimental: ARPE-19 cells, can be plated and grown in DMEM/F-12 containing 10% FBS and 1× penicillin/streptomycin at 37° C., 5% CO2, 99% relative humidity for 24 h. […] 15-LOX-1 deficient cells can be maintained in the same medium as ARPE-19 with the addition of 500 μg/mL Geneticin (Life Technologies Corporation, Carlsbad, Calif.). Transfection can be performed in all cases using Lipofectamine 2000 (Life Technologies Corporation, Carlsbad, Calif.) following the manufacturer's recommendations. […] Experiments with transfection efficiency that yielded less than 80% can be discarded. For siRNA, we used 6 μl of Lipofectamine 2000 per 50 pmol of siRNA per mL of incubation medium, and, for plasmids, we used 6 μl of Lipofectamine 2000 per 2 μg of plasmid per mL of incubation medium. Cells can be incubated for 5 hours at 37° C., 5% CO2 and 99% relative humidity. […] When siRNA/plasmid co-transfection is required, siRNA and plasmid-carrying transfection mixes can be prepared separately and added one after the other in the same well. Oxidative stress treatments can be performed using 600 (ARPE-19) or 1600 (hRPE) μM H2O2, along with 10 ng/mL TNFα, for the required time indicated in each experiment. The treatment we used employed the low serum (0.5% serum) without hFGF. Treatment to induce uncompensated oxidative stress (UOS) can be performed after 8 hours of low-serum medium incubation unless specifically noted. Wnt5a, Wnt3a or NPD1 can be added immediately before induction of UOS. In the secretion experiments, Pitstop 2 can be added to the medium 2 hours before harvesting.
(§1) Immunostaining can be performed in 8-well slide chambers and the Hoechst staining in 24-well plates. […] Briefly, cells can be fixed using 4% paraformaldehyde in PBS 1× for 20 min at room temperature or overnight at 4° C. After three washes with PBS, cells can be permeabilized using 0.1% Triton™ X-100 for five minutes and blocked using 10% normal serum and 1% BSA for one hour. […] Hoechst staining can be performed using same protocol of fixation. In one embodiment, permeabilization is done using methanol for 20 min at room temperature. […] Dying cells can be identified by size (0 to 50 pixels), intensity threshold, and circularity. The ratio of hyperpyknotic cells over the total can be calculated for nine randomly chosen fields per sample obtained from three independent wells per experiment. Each experiment can be repeated at least three times to confirm the findings.
ARPE-19 cells, were plated and grown in DMEM/F-12 containing 10% FBS and 1× penicillin/streptomycin at 37° C., 5% CO2, 99% relative humidity for 24 h. […] 15-LOX-1 deficient cells were maintained in the same medium as ARPE-19 with the addition of 500 μg/mL Geneticin (Life Technologies Corporation). Transfection was performed in all cases using Lipofectamine 2000 (Life Technologies Corporation) following the manufacturer's recommendations. […] Experiments with transfection efficiency that yielded less than 80% were discarded. For siRNA, we used 6 μl of Lipofectamine 2000 per 50 pmol of siRNA per mL of incubation medium, and, for plasmids, we used 6 μl of Lipofectamine 2000 per 2 μg of plasmid per mL of incubation medium. Cells were incubated for 5 hours at 37° C., 5% CO2 and 99% relative humidity. […] When siRNA/plasmid co-transfection was required, siRNA and plasmid-carrying transfection mixes were prepared separately and added one after the other in the same well. […] The treatment we used employed the low serum (0.5% serum) without hFGF. Treatment to induce uncompensated oxidative stress (UOS) was performed after 8 hours of low-serum medium incubation unless specifically noted. Wnt5a, Wnt3a or NPD1 was added immediately before induction of UOS.

Wnt5a/FZD5 = assay: Immunocytochemistry of Wnt5a/FZD5 colocalization and vesicles in hpRPE cells; assay type: cell-based, human; details: for size of FZD5/Wnt5a vesicles: Wnt5a added; for size of FZD5/Wnt5a vesicles / vesicle load (mean intensity per vesicle) / intensity and number of Wnt5a-positive vesicles / number of FZD5-positive vesicles: IMARIS; for vesicle load (mean intensity per vesicle): external Wnt5a added; for number of Wnt5a/FZD5 colocalized vesicles per field: UOS 1600 μM H2O2, 2 hours, +/− 50 ng/ml Wnt5a, no Pitstop2
Experimental: To ascertain localization and interaction between FZD5 and Wnt5a we incubated hpRPE undergoing UOS with Wnt5a+/−NPD1 or other lipid mediators.
as §1
In an embodiment involving early stages of apoptosis, the total number of cells per field is assessed and counted to ensure unbiased observations. […] Settings can be adjusted in the conditions that show higher intensity and can be used throughout the remaining samples. In an embodiment, Pearson's colocalization coefficient (PCC) is obtained using FV1200 analysis software for every field in each experiment, and the mean and SEM are depicted in FIGS. 7-11.
Immunostaining was performed in 8-well slide chambers and the Hoechst staining in 24 well plates. […] Briefly, cells were fixed using 4% paraformaldehyde in PBS 1× for 20 min at room temperature or overnight at 4° C. After three washes with PBS, cells were permeabilized using 0.1% Triton™ X-100 for five minutes and blocked using 10% normal serum and 1% BSA for one hour. […] Hoechst staining was performed using same protocol of fixation, but permeabilization was done using methanol for 20 min at room temperature. […] Dying cells were identified by size (0 to 50 pixels), intensity threshold and circularity. The ratio of hyperpyknotic cells over the total was calculated for nine randomly chosen fields per sample obtained from three independent wells per experiment. Each experiment was repeated at least three times to confirm the findings. In the experiments involving early stages of apoptosis, we assessed the total number of cells per field and counted them to ensure unbiased observations. […] Pearson's colocalization coefficient (PCC) was obtained using FV1200 analysis software for every field in each experiment, and the mean and SEM are depicted in Figures S1-S5. […] IMARIS software analysis was performed building a colocalization channel using the Costes thresholding, and the colocalized elements were analyzed using the spots function using the settings different spots sites, background subtraction and local contrast. The output obtained consisted on a collection of sizes (one per element in each picture) or the mean of the intensity in each spot.

## t-Boc-NH-Met-Asp-Gly-Cys-Glu-Leu-CO2H (Boc-MDGCEL-OH) [Box5]
ARPE-19 cells and hpRPE; Hoechst staining
  apoptosis by UOS in the presence of the Wnt ligand: blocked apoptosis; also recorded: hindered apoptosis
ARPE-19 cells and hpRPE; no Wnt5a added, Hoechst staining
  apoptosis in cells only exposed to UOS: decreased apoptosis; also recorded: prevented cell death
Wnt5a/FZD5; hpRPE under UOS
  size of FZD5/Wnt5a vesicles: Neither NPD1 nor Box5 affected the magnitude of the Wnt5a effect
  vesicle load (mean intensity per vesicle): did not affected vesicle loads that showed FZD5/clathrin or Wnt5a/clathrin signal
  intensity and number of Wnt5a-positive vesicles: did not modify the increase in intensity and number induced by UOS
  number of FZD5-positive vesicles: decrease the number of FZD5-positive vesicles
Wnt5a/FZD5; hpRPE
  number of Wnt5a/FZD5 colocalized vesicles per field: decreased Wnt5a induction

## CC/C=C\C[C@H](O)\C=C/C=C/C=C/[C@H](O)C/C=C\C/C=C\CCC(=O)O [NPD1, 10R,17S-dihydroxy-docosa-4Z,7Z,11E,13E,15Z,19Z-hexaenoic acid]
ARPE-19 cells and hpRPE
  UOS-dependent NFkB activation and apoptosis (FIG. 18B legend): counteracted these effects
ARPE-19 cells and hpRPE; Hoechst staining
  apoptosis by UOS in the presence of the Wnt ligand: blocked apoptosis; also recorded: hindered apoptosis
Wnt5a/FZD5; hpRPE under UOS
  size of FZD5/Wnt5a vesicles: Neither NPD1 nor Box5 affected the magnitude of the Wnt5a effect
  vesicle load (mean intensity per vesicle): higher Wnt5a/FZD5 and FZD5/Clathrin vesicle intensity when Wnt5a was added
  intensity and number of Wnt5a-positive vesicles: difference in mean intensity distribution
  number of FZD5-positive vesicles: decrease the number of FZD5-positive vesicles
Wnt5a/FZD5; hpRPE under UOS, absence of rWnt5a
  mode of Wnt5a and FZD5 signal intensity: restore both modes to control levels
Wnt5a/FZD5; hpRPE
  number of Wnt5a/FZD5 colocalized vesicles per field: brought down the number of vesicles per field; also recorded: had the same effect; also recorded: decreased the amount of vesicles per field
Wnt5a/FZD5; hpRPE, absence of Wnt5a
  quantity of large only-Wnt5a positive spots: increased

B1: Wnt5a: Recombinant Human/Mouse Wnt-5a Protein, CHO-derived (Gln38-Lys380), R&D systems 645-WN (protein)
chain: QVVIEANSWWSLGMNNPVQMSEVYIIGAQPLCSQLAGLSQGQKKLCHLYQDHMQYIGEGAKTGIKECQYQFRHRRWNCSTVDNTSVFGRVMQIGSRETAFTYAVSAAGVVNAMSRACREGELSTCGCSRAARPKDLPRDWLWGGCGDNIDYGYRFAKEFVDARERERIHAKGSYESARILMNLHNNEAGRRTVYNLADVACKCHGVSGSCSLKTCWLQLADFRKVGDALKEKYDSAAAMRLNSRGKLVQVNSRFNSPTTQDLVYIDPSPDYCVRNESTGSLGTQGRLCNKTSEGMDGCELMCCGRGYDQFKTVQTERCHCKFHWCCYVKCKKCTEIVDQFVCK
ARPE-19 cells and hpRPE
  cell death by UOS on addition of Wnt5a: enhanced cell death triggered by H2O2; also recorded: enhances the percentage of cell death induced by UOS
ARPE-19 cells and hpRPE; listed as Recombinant Wnt5a
  cell death by UOS on addition of Wnt5a: potentiated cell death by UOS
ARPE-19 cells and hpRPE; resting cells, no UOS
  effect of Wnt5a alone on RPE cells (apoptosis): no effect
Wnt5a/FZD5; hpRPE
  number of Wnt5a/FZD5 colocalized vesicles per field: increased the number of vesicles that co-localize with FZD5
